“Also recorded” adds a separate entry of the source.
Columns and labels:
KM12SM cells [1] = test: IL-13-triggered invasion assay; format: cell-based, human; conditions: IL-13, Claramine 2 μM, trifluoroacetate salt
Procedure: (§1) FIG. 5. […] B) KM12SM cells were subjected to cell adhesion. C) KM12SM and U87MG cells were subjected to MTT assays. The three cell lines were subjected to D) migration and E) invasion assays. All the experiments were done in the presence or absence of IL-13, Claramine and/or anti-IL13Rα2 blocking antibodies.
(§2) Adhesion, wound healing and invasion assays have been previously reported.
(§3) Next, the effect of the PTP1B inhibitor Claramine on the pro-invasive effects of IL-13 was investigated. First, the cellular toxicity of Claramine was studied at different doses. Claramine at 5 μM caused around 50% decrease in cell survival, but had no effect at 2 μM, which was used in the remaining experiments (data not shown). […] The effects of Claramine on cell adhesion, migration, invasion, and, to a minor extent, proliferation mimicked the effects of PTP1B silencing in the three types of cancer cells (FIG. 5 B-E).

A2780 cells [2] = test: IL-13-triggered invasion assay; format: cell-based, human; conditions: A2780, IL-13, Claramine 2 μM; trifluoroacetate salt
Procedure: as §1, §2, §3

U87MG cells [3] = test: IL-13-triggered invasion assay; format: cell-based, human; conditions: IL-13, Claramine 2 μM, trifluoroacetate salt
Procedure: as §1, §2, §3

U251 cells [4] = test: GBM subcutaneous xenograft tumor growth; format: in vivo, NSG mice
Procedure: (§4) FIGS. 7A-7E show PTP1B inhibition increases survival in CRC and glioblastoma mouse models. […] Murine β-actin amplification was used as a loading control.
(§5) For GBM xenografts, NSG mice were subcutaneously inoculated with U251 cells. Then, mice were treated intraperitoneally with 7 doses of Claramine (every three days) starting day 15 after implantation (a total of 2 mg/kg of body weight). The size of subcutaneous tumors was measured every 2 days. After euthanasia, tumors were isolated and the extracts subjected to Western blot analysis to determine IL13Rα2 and PTP1B activation. Liver homing and metastasis experiments in Swiss nude mice have been described. For CRC metastasis, mice were treated with the same dose of Claramine as above. Animals were weighed to study the effects on food intake and tolerance to the treatment.
Next, the in vivo effect of Claramine on GBM tumor growth and intracranial inoculation was investigated. First, mice were subcutaneously inoculated with U251 cells and xenografts were allowed to grow for 15 days before starting i.p. treatment with Claramine (FIG. 7C). Tumors in treated mice stop growing for the duration of the treatment when compared with non-treated mice. […] In addition, the involvement of IL13Rα2 and PTP1B in the tumor growth was studied using xenograft tissues. A significant increase of PTP1B phosphorylation (3-5 times) in vivo compared to cells in culture was found. […] An increased expression of IL13Rα2 in the xenografts was also noticed.

U251 GBM cells = test: Western blot of EGF and IL-13 signaling (pEGFR Y1068, pPTP1B Y66, pSrc Y419); format: cell-based, human
Procedure: FIG. 6. […] (A) U251 cells were treated with EGF, IL-13 or both, with or without Claramine. Cell extracts were analyzed by western blot to detect pEGFR Y1068, pPTP1B Y66, and pSrc Y419. B) U251 cells silenced for EGFR, IL13Rα2 or control cellswere treated with EGF or IL-13 in the presence or absence of Claramine. Cells were lysed and whole extracts were analyzed by western blot to detect pEGFR Y1068, pPTP1B Y66 and pSrc Y419.
(§6) Western blot assays were done as previously described.
EGFR is a substrate of PTP1B and might cooperate with IL13Rα2 in GBM invasion. To determine whether PTP1B participates in the modulation of the EGFR pathway besides the IL13Rα2, the effect of Claramine on EGF and IL-13 signaling in GBM was investigated. […] PTP1B Tyr66 was also phosphorylated by EGF and IL-13, indicating the participation of PTP1B in both pathways.

KM12SM cells [5] = test: IL-13-induced cell adhesion to Matrigel; format: cell-based, human; conditions: IL-13 10 ng/ml, Claramine 2 μM, trifluoroacetate salt
Procedure: as §1, §2, §3

KM12SM cells [6] = test: IL-13-triggered migration (wound healing) assay; format: cell-based, human; conditions: IL-13, Claramine 2 μM, trifluoroacetate salt
Procedure: as §1, §2, §3

A2780 cells [7] = test: IL-13-triggered migration (wound healing) assay; format: cell-based, human; conditions: A2780, IL-13, Claramine 2 μM; trifluoroacetate salt
Procedure: as §1, §2, §3

U87MG cells [8] = test: IL-13-triggered migration (wound healing) assay; format: cell-based, human; conditions: IL-13, Claramine 2 μM, trifluoroacetate salt
Procedure: as §1, §2, §3

GBM12 PDX = test: intracranial model of GBM; format: in vivo, athymic nude mice
Description: as §4
For intracranial experiments, athymic nude male mice were purchased from Jackson Laboratories. All experiments were approved by the Northwestern University Institutional Animal Care and Use Committee (IACUC). For the intracranial implantation of cannula and tumor cells, 6-8 weeks old […] mice were first anesthetized with a ketamine HCl (25 mg/ml)/xylazine (2.5 mg/ml) cocktail. A previously established surgical procedure was utilized in this study with a small variation reflecting the cannula implantation. For that, a custom-made 26 gauge sterile guide cannula (Plastics One, Roanoke, VA) was installed into the brain through a burr hole at 2 mm depth and secured with tissue glue (3M, St Paul, MN). For the glioma PDX cells implantation, a 33-gauge sterile syringe was inserted into the guide cannula at 3 mm depth following by infusion of 2.5 μl of 10^5 GBM12 cells. The skin incision was closed with surgical glue around the implantation site. The extracranial end of the cannula was then covered with a 33-gauge protection dummy cannula. The surgical procedure was followed with a standard post-surgery care according to the approved protocol. The intracranial injection of Claramine through cannula was done in 4 fractions for a total 4-8 mg/kg starting day 7 after tumor implantation and every 3 days after that. For systemic treatment, Claramine was delivered intravenously in 4 fractions for a total 8, 15 or 30 mg/kg starting day 7 after tumor implantation and every 3 days after that. Sterile 0.9% saline solution served as a negative control in all experiments.
Finally, an intracranial model of GBM using the GBM12 PDX that expresses high amounts of IL13Rα2 was tested. Tumors were implanted intracranially for seven days before starting the treatment with four doses of Claramine for a total of 4 mg/kg or 8 mg/kg (FIG. 7E). The median survival for the treated mice increased up to 36-39 days from 27 days of the control mice.

KM12SM cells [9] = test: Western blot of pSrc Y530 in IL-13-treated cells; format: cell-based, human; conditions: 2 μM Claramine, IL13-treated KM12SM
Procedure: as §1, §6, §3

A2780 cells [10] = test: Western blot of pSrc Y530 in IL-13-treated cells; format: cell-based, human; conditions: 2 μM Claramine, IL13-treated A2780
Procedure: as §1, §6, §3

U87MG cells [11] = test: Western blot of pSrc Y530 in IL-13-treated cells; format: cell-based, human; conditions: 2 μM Claramine, IL13-treated U87MG
Procedure: as §1, §6, §3

GBM cells = test: 2-NBDG glucose uptake assay; format: cell-based, human; conditions: data not shown
Procedure: Flow cytometry was performed as previously described. For IL13Rα2 internalization assays, cells were starved for 3 h, detached with 2 mM EDTA, incubated 30 min with IL-13 at 37° C., primary and secondary antibodies for 30 min at 4° C. and analyzed in the cytofluorimeter as previously described. For glucose uptake determination, cells were incubated with IL-13 and/or Claramine and subjected to the assays using 2-NBDG glucose uptake assays kit (BioVision) according to manufacturer's instructions. Glucose uptake was quantified in the cytofluorimeter.
(§7) As PTP1B silencing or Claramine treatment might modulate glucose and energy homeostasis including insulin signaling, the effect of IL-13 on the glucose uptake and insulin signaling was also investigated. IL-13 increased the glucose uptake in GMB cells but not in CRC cells (data not shown). […] The phosphorylation of insulin receptor substrate 1 (IRS-1) in CRC and GBM cells treated with IL-13 and Claramine was then studied. A strong phosphorylation of IRS-1 in U251 cells treated with IL-13 was found. In contrast, phosphorylation of IRS-1 in KM12SM cells was much weaker, without differences after IL-13 addition. […] Together, these studies support that Claramine effect on tumor cells seems to be independent of the glucose homeostasis.

[12] = format: cell-based; conditions: data not shown
Procedure: as §3

KM12SM cells [13] = test: MTT proliferation assay with IL-13; format: cell-based, human; conditions: IL-13, Claramine 2 μM
Procedure: as §1
(§8) Proliferation assays have been previously described. To assess cell survival to oxidative stress, 10^4 cells were seeded per well on 96-well plates and incubated for 24 h in DMEM containing 1% serum in presence of 1 mM H2O2, followed by 1 h incubation with MTT. Cell viability was determined by A560 nm and compared with untreated cells.
as §3

U87MG cells [14] = test: MTT proliferation assay with IL-13; format: cell-based, human; conditions: IL-13, Claramine 2 μM
Procedure: as §1, §8, §3

KM12SM cells [15] = test: phosphorylation of insulin receptor substrate 1 (IRS-1); format: cell-based, human; conditions: KM12SM cells treated with IL-13 and Claramine
Description: as §7

U251 cells [16] = test: as above; format: cell-based, human; conditions: U251 cells treated with IL-13 and Claramine
Description: as §7

[17] = MTT assay for survival to oxidative stress (IL-13 promoted cell survival); format: cell-based; conditions: data not shown
Procedure: as §8, §3

KM12SM cells [18] = test: colorectal cancer liver metastasis model, intrasplenic inoculation; format: in vivo, Swiss nude mice
Procedure: as §4, §5
Finally, the in vivo effects of PTP1B silencing or inhibition in colorectal cancer and glioblastoma mouse models were investigated. Given the high homology between murine and human IL-13, it was hypothesized that it was unnecessary to treat the mice with exogenous human IL-13 (11). Fora further confirmation, human and murine IL-13 were compared in an invasion experiment. Both IL-13 promoted a similar pro-invasive capacity on human cancer cells (data not shown). Then, the effect of PTP1B silencing on the capacity for liver homing of KM12SM cells inoculated in the spleen of nude mice was examined. As a surrogate marker for homing, human GAPDH was detected in the livers of mice inoculated with control cells but not in those inoculated with PTP1B-silenced cells (FIG. 7A). Then, the effects of Claramine on mice survival in colorectal cancer metastasis were investigated. Forty-eight h after spleen inoculation with CRC cells, mice were treated intraperitoneally (i.p.) with Claramine for two weeks on alternate days, with a total dose of 49 μg/mouse.

[19] = U251 cells silenced for EGFR, IL13Rα2 or control, FIG. 6B

For `CC(C)CCC[C@@H](C)[C@H]1CC[C@H]2[C@@H]3C[C@@H](NCCCNCCCCNCCCN)C4C[C@@H](O)CC[C@]4(C)[C@H]3CC[C@]12C.O=C(O)C(F)(F)F` (stereo partly drawn) [Claramine, (3β, 6β)-6-[[3-[[4-[(3-Aminopropyl)amino]butyl]amino]propyl]amino]-cholestan-3-ol trifluoroacetate salt], the cell invasion (KM12SM cells [1]) was “inhibit”, the cell invasion (A2780 cells [2]) was “inhibit” and the cell invasion (U87MG cells [3]) was “inhibit”. The “phosphorylation of PTP1B in xenograft tissues” value (U251 cells [4]; Western blot of tumor extracts) was “moderate inhibition”, the “toxicity / weight of the animals” value (U251 cells [4]; during i.p. treatment with Claramine, trifluoroacetate salt) was “remained constant; also recorded: No Claramine toxicity was observed” and the tumor growth (U251 cells [4]; i.p. treatment starting 15 days after implantation, 7 doses, total 2 mg/kg, trifluoroacetate salt) was “significantly inhibited; also recorded: stop growing; also recorded: regression”. The EGFR activation (U251 GBM cells; [19]) was “suppressed”, the Src activation (U251 GBM cells; [19]) was “suppressed” and the “activation of EGFR (pEGFR Y1068) by EGF and IL-13” value (U251 GBM cells; U251 cells, FIG. 6A) was “inhibited”. The “activation of Src (pSrc Y419) by EGF and IL-13” value (U251 GBM cells; U251 cells, FIG. 6A) was “inhibited”, the “IL-13-induced cell adhesion to Matrigel” value (KM12SM cells [5]) was “inhibited; also recorded: abolished” and the cell migration (KM12SM cells [6]) was “inhibit”. The cell migration (A2780 cells [7]) was “inhibit”, the cell migration (U87MG cells [8]) was “inhibit” and the “mice survival (Kaplan-Meier), treated versus control” value (GBM12 PDX; GBM12 PDX intracranial, p<0.001, trifluoroacetate salt) was “significantly increased; also recorded: statistically significant difference in survival; also recorded: considerable increase”. For the same compound, the “survival up to” value (GBM12 PDX; four doses, total of 4 mg/kg or 8 mg/kg, from day 7) was 70-72 days post-inoculation, the median survival (GBM12 PDX; four doses, total of 4 mg/kg or 8 mg/kg, from day 7, control mice 27 days) was 36 to 39 days and the “phosphorylation of Src Tyr530” value (KM12SM cells [9]) was “preserved”. For the same compound, the “phosphorylation of Src Tyr530” value (A2780 cells [10]) was “preserved”, the “phosphorylation of Src Tyr530” value (U87MG cells [11]) was “preserved” and the IL-13-increased glucose uptake (GBM cells) was “did not inhibit”. The “effect on cell survival” value ([12]; Claramine at 2 μM) was “no effect”, the “decrease in cell survival” value ([12]; Claramine at 5 μM) was “around 50%” and the “proliferation (MTT)” value (KM12SM cells [13]) was “inhibited”. The “proliferation (MTT)” value (U87MG cells [14]) was “inhibited”, the IRS-1 phosphorylation (KM12SM cells [15]) was “did not affect” and the IRS-1 phosphorylation (U251 cells [16]) was “did not affect”. For the same compound, the “IL-13 promoted cell survival” value [17] was “significant reduction”, the “mice survival (Kaplan-Meier)” value (KM12SM cells [18]; KM12SM intrasplenic, p<0.001) was “significantly increased” and the “state of treated mice at sacrifice” value (KM12SM cells [18]; day 100 post-inoculation, total dose 49 μg/mouse i.p.) was “without symptoms of the disease, presence of metastatic nodes or weight loss”. The “protection against liver metastases” value (KM12SM cells [18]; i.p., two weeks on alternate days, total dose 49 μg/mouse, trifluoroacetate salt) was “complete protection; also recorded: complete inhibition”.

Reference: patent US11883416B2, “Methods and compositions for the treatment of IL13Ra2—overexpressing cancer” (CONSEJO SUPERIOR DE INVESTIGACIONES CIENTÍFICAS (CSIC), priority 2020, dated 2024)
